The source of these data is patent publication US10745380B2, “Pyridine derivatives and their use in the treatment of cancer and hemoglobinopathies” (CTXT PTY LTD, priority 2016, dated 2020).

Molecules are shown by their SMILES. Counter-ions that a name gives are not always drawn.

Assay [1] deals with TE11 cell line. The assay can be described thus: PRMT5 Biomarker Assay (symmetrical dimethylation of arginine, Histone H4 Arginine 3). The assay is classed as cell-based. To be noted: TE11 cells, 72 hours incubation, Di-Methyl Histone H4 Arginine 3 level. As for the experimental part:
Compounds of the invention may be tested for potency to inhibit symmetrical dimethylation of arginine in the following assay:
The cell line TE11 was seeded at a density of 6,000 cells per well in 96 well optical quality tissue culture plates in DME medium and 10% foetal bovine serum, and allowed to adhere for 5 hours under standard culture conditions (37 degree Celsius, 5% CO2). Compound dilutions prepared in DMSO were added to the medium, with negative control wells reserved for treatment with DMSO only and maximum inhibition controls receiving a potent PRMT5 inhibitor compound at 1 μM concentration. After incubation for 72 hours, the cells were fixed with 3.7% formaldehyde in PBS for 30 minutes at room temperature, washed with phosphate buffer saline and blocked with Odyssey blocking buffer (LI-COR, Lincoln, Nebr.). Rabbit anti-Di-Methyl Histone H4 Arginine 3 specific antibody (Epigentek) in Odyssey blocking buffer was added and incubated for 14 hours at 4 degree Celsius. […] Plates were washed and read on a PerkinElmer Envision 2103 in fluorescence intensity scanning mode (24 scans across the well area). […] Using a Columbus image analysis pipeline, individual nuclei were located by Hoechst 33342 stain and the methylation level was calculated from the Alexa647-related intensity in the same area. […]

Assay [2] concerns the target Full-length PRMT5 enzyme co-expressed with His6-MEP50 (Homo sapiens (Human), UniProt O14744). Nature of the assay: PRMT5 Biochemical Assay. To be noted: Transcreener EPIGEN methyltransferase assay, histone H4 derived peptide substrate, 4 hours at 37 degree Celsius. As for the experimental part:
Assays PRMT5 Biochemical Assay
Compounds of the invention may be tested for in vitro activity in the following assay: A histone H4 derived peptide is used as substrate (amino acid sequence: […]NH2). Full-length PRMT5 enzyme (NCBI Reference sequence NP_006100.2) was co-expressed with His6-MEP50 in insect cells and purified via Nickel immobilized metal affinity and gel filtration chromatography (“the enzyme”).
The 6 μL reactions are run in Greiner brand black 384-well low volume assay plates. All reactions contained assay buffer (phosphate buffered saline, 0.01% (v/v) Tween-20, 0.01% (w/v) albumin from chicken egg white, 1 mM Dithiothreitol, 1 μM peptide substrate, 1 μM S-Adenosyl methionine, and 15 ng/reaction enzyme, with the enzyme being omitted from negative control reactions. Compounds were added in a volume of 100 nL from dilution series prepared in DMSO, positive and negative control reactions receiving the same volume DMSO without compound. The plates were sealed with adhesive seals and incubated for 4 hours at 37 degree Celsius. Reaction progress was measured using the Transcreener™ EPIGEN methyltransferase assay (BellBrook Labs, Madison, Wis.) as recommended by the manufacturer. To each reaction 2 μL detection mix were added, containing coupling enzymes, fluorescence polarisation tracer, and AMP antibody. […]

As a reminder, the IC50 is the concentration at which inhibition is half-maximal. A high value points to weaker potency.

Full-length PRMT5 enzyme co-expressed with His6-MEP50, sequence (O14744 whole entry): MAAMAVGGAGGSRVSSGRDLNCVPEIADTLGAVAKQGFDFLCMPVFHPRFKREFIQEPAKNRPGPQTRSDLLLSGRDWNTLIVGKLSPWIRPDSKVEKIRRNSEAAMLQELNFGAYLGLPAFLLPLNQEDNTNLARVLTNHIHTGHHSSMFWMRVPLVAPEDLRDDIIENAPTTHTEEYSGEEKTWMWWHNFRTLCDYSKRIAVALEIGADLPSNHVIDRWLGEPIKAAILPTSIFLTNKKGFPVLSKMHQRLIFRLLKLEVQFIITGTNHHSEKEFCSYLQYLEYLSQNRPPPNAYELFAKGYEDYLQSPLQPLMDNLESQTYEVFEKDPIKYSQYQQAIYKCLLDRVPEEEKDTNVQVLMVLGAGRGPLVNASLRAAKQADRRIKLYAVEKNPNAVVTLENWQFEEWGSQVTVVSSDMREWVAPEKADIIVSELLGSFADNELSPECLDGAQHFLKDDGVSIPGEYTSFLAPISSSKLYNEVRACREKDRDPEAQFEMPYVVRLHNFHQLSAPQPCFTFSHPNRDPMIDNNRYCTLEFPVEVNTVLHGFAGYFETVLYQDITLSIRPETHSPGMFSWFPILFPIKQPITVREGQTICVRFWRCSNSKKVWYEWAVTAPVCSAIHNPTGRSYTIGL
Full-length PRMT5 enzyme co-expressed with His6-MEP50, sequence (Q9BQA1 whole entry partner): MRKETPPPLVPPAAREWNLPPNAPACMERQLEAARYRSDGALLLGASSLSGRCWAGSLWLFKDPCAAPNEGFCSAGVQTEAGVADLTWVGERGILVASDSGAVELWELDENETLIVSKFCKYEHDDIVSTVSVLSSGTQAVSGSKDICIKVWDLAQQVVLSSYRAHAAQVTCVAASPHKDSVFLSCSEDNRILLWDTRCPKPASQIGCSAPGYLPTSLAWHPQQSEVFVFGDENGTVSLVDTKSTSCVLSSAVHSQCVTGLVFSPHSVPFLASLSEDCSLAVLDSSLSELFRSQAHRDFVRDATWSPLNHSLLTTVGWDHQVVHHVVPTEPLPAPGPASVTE

As to `CC(=O)N1CCC(Nc2nccc(C(=O)NC[C@@H](O)CNC3Cc4ccccc4C3)c2Cl)CC1` [Compound 2], the IC50 in assay [1] (Homo sapiens, TE-11) was 0.035 µM; in assay [2], 0.105 µM.
As to `CCOc1nc(OCc2ccccc2)ccc1C(=O)NC[C@@H](O)CNC1Cc2ccccc2C1` [Compound 1, (S)-6-(Benzyloxy)-N-(3-((2,3-dihydro-1H-inden-2-yl)amino)-2-hydroxypropyl)-2-ethoxy nicotin amide hydrochloride], the IC50 in assay [1] came out at 0.079 µM; in assay [2] it was 0.086 µM.
